For assay [1], the system named is Jurkat HIV-luciferase clones. The assay can be described thus: Jurkat latency reversal assay. Format: cell-based. Particulars: Homo sapiens, 48 h; Jurkat latency reversal assay potency; read-out: Jurkat pEC50 (converted). The essentials: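 EC50 and maximal activation versus vehicle were derived by four-parameter logistic regression of luciferase luminescence. The luminescence was induced in pooled Jurkat HIV-luciferase clones C16, 115 and N6 (5,000 cells/well) after 48 h at 37° C with duplicate 14-point, 3-fold dilutions starting at 10 μM (0.5% DMSO).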

A further assay has as its target cIAP1-BIR3 (Homo sapiens (Human), UniProt Q13490). The assay can be described thus: BIR binding assay (FRET competition), cIAP1 BIR3. Particulars: for cIAP1 BIR3 vs BIR2 separation window: fold separation (FS) for cIAP1. The essentials: (§1)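 Compounds tested as 15-point, 3-fold series displacing 200 nM AlexaFluor647-labelled SMAC peptide from His-tagged BIR domain (cIAP1-BIR3 50 nM; cIAP1-BIR2 and cIAP2-BIR2 325 nM; XIAP-BIR3 100 nM), pH 7.4, 60 min. Eu-W1024 (2 nM) added 30 min; emission ratio fitted for IC50.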

A further assay has as its target cIAP1-BIR2 (Homo sapiens (Human), UniProt Q13490). Description: BIR binding assay (FRET competition), cIAP1 BIR2. In a few lines:
as §1

A further assay deals with cIAP2-BIR3 (Homo sapiens (Human), UniProt Q13489). Description: BIR binding assay (FRET competition), cIAP2 BIR3. Particulars: for cIAP2 BIR3 vs BIR2 separation window: fold separation (FS) for cIAP2.
In another assay the target is cIAP2-BIR2 (Homo sapiens (Human), UniProt Q13489). The assay can be described thus: BIR binding assay (FRET competition), cIAP2 BIR2. In a few lines:
as §1

A further assay has as its target XIAP-BIR3 (Homo sapiens (Human), UniProt P98170). The assay can be described thus: BIR binding assay (FRET competition), XIAP BIR3. Particulars: for XIAP BIR3 vs BIR2 separation window: fold separation (FS) for XIAP. The essentials: as §1
Another assay addresses XIAP-BIR2 (Homo sapiens (Human), UniProt P98170). Description: BIR binding assay (FRET competition), XIAP BIR2. Particulars: for IC50: read-out: XIAP BIR2 (pIC50) (converted). The essentials:
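Competitive TR-FRET used His-tagged XIAP-BIR2 (200 nM) and 200 nM AlexaFluor647-labelled AVPIAQKSE SMAC peptide in HEPES buffer pH 7.4 with CHAPS, glycerol and DTT, incubated 60 min before 30 min with 2 nM Eu-W1024. The 615/665 nm ratio from a 15-point, 3-fold series was fit with a four-parameter model for IC50/pIC50.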

Like-named read-outs stand apart in the source and are kept apart here.

This note sets out measurements from US20250326771A1, “PIPERAZINE DERIVATIVES USEFUL IN HIV THERAPY” (VIIV HEALTHCARE COMPANY, priority 2022, published 2025).

cIAP2-BIR2, sequence (Q13489 158-242): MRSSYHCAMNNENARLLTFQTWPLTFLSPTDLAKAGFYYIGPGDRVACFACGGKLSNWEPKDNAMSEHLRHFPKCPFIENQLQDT
XIAP-BIR3, sequence (P98170 241-356): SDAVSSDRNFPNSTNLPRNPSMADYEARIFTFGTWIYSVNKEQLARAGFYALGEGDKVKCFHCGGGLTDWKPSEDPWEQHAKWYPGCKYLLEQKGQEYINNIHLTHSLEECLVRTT
cIAP2-BIR3, sequence (Q13489 238-349): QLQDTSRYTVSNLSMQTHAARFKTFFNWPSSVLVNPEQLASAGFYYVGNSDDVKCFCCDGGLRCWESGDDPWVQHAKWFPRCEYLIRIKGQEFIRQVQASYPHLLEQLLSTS
cIAP1-BIR2, sequence (Q13490 173-257): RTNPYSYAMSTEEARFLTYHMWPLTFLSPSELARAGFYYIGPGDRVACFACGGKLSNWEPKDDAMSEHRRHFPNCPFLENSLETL
cIAP1-BIR3, sequence (Q13490 253-363): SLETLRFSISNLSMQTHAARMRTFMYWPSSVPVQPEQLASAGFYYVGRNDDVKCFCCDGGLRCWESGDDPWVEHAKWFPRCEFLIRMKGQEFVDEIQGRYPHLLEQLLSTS
XIAP-BIR2, sequence (P98170 124-240): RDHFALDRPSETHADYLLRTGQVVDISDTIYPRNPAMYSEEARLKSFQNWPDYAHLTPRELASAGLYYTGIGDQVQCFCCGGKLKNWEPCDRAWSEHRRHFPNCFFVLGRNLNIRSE

Regarding `C[C@@H]1CN(CC(=O)N2CC(C)(C)c3[nH]c(=O)c(Cc4ccc(F)cc4)cc32)[C@@H](CN2CCN(C(=O)c3ccc4cc(C(=O)N5CCN(C[C@H]6CN[C@H](C)CN6CC(=O)N6CC(C)(C)c7[nH]c(=O)c(Cc8ccc(F)cc8)cc76)[C@H](C)C5)ccc4c3)C[C@H]2C)CN1` [Example 18, 1,1′-(2,2′-((3R,3′R,6R,6′R)-(((2R,2′R)-(naphthalene-2,6-dicarbonyl)bis(2-methylpiperazine-4,1-diyl))bis(methylene))bis(3-methylpiperazine-6,1-diyl))bis(acetyl))bis(6-(4-fluorobenzyl)-3,3-dimethyl-1,2,3,4-tetrahydro-5H-pyrrolo[3,2-b]pyridin-5-one)], the EC50 in assay [1] was 12.6 to 63.1 nM. Besides, the IC50 at cIAP1-BIR3 was 1.38 to 7.94 nM; on cIAP1-BIR2 it was 1000 to 3160 nM; on cIAP2-BIR3, 1.38 to 7.94 nM; on cIAP2-BIR2, 1000 to 3160 nM; at XIAP-BIR3, 1.38 to 7.94 nM; on XIAP-BIR2 (FRET competition binding), 10000 to 51300 nM. Also, the “cIAP1 BIR3 vs BIR2 separation window” value at cIAP1-BIR3 is recorded as “+++ (10,000>FS>1,000)”. Also, on cIAP2-BIR3, the “cIAP2 BIR3 vs BIR2 separation window” value is “+++ (10,000>FS>1,000)”. Moreover, the “XIAP BIR3 vs BIR2 separation window” value on XIAP-BIR3 was “++++ (FS>10,000)”.
Regarding `C[C@@H]1CN(CC(=O)N2CC(C)(C)c3[nH]c(=O)c(Cc4ccc(F)cc4)cc32)[C@@H](CN2CCO[C@H](C(=O)N(C)CCCCCCN(C)C(=O)[C@@H]3CN(C[C@H]4CN[C@H](C)CN4CC(=O)N4CC(C)(C)c5[nH]c(=O)c(Cc6ccc(F)cc6)cc54)CCO3)C2)CN1` [Example 124, (2S,2'S)-N,N′-(hexane-1,6-diyl)bis(4-(((2R,5R)-1-(2-(6-(4-fluorobenzyl)-3,3-dimethyl-5-oxo-2,3,4,5-tetrahydro-1H-pyrrolo[3,2-b]pyridin-1-yl)-2-oxoethyl)-5-methylpiperazin-2-yl)methyl)-N-methylmorpholine-2-carboxamide)], the EC50 in assay [1] is 12.6 to 63.1 nM. Besides, the IC50 at cIAP1-BIR3 is 7.94 to 15.8 nM; at cIAP1-BIR2 it was 1000 to 3160 nM; at cIAP2-BIR3 it was 7.94 to 15.8 nM; at cIAP2-BIR2, 1000 to 3160 nM; at XIAP-BIR3 it was 7.94 to 15.8 nM; at XIAP-BIR2 (FRET competition binding), 10000 to 51300 nM. Further, the “cIAP1 BIR3 vs BIR2 separation window” value at cIAP1-BIR3 is “+++ (10,000>FS>1,000)”. Further, the “cIAP2 BIR3 vs BIR2 separation window” value on cIAP2-BIR3 was “+++ (10,000>FS>1,000)”. Besides, at XIAP-BIR3, the “XIAP BIR3 vs BIR2 separation window” value was “++++ (FS>10,000)”.
In the case of `C[C@@H]1CN(CC(=O)N2CC(C)(C)c3[nH]c(=O)c(Cc4ccc(F)cc4)cc32)[C@@H](CN2CCC(CN(C)Cc3ccc(CN(C)CC4CCN(C[C@H]5CN[C@H](C)CN5CC(=O)N5CC(C)(C)c6[nH]c(=O)c(Cc7ccc(F)cc7)cc65)CC4)cc3)CC2)CN1` [Example 100, 1,1′-(2,2′-((3R,3′R,6R,6′R)-(((((1,4-phenylenebis(methylene))bis(methylazanediyl))bis(methylene))bis(piperidine-4,1-diyl))bis(methylene))bis(3-methylpiperazine-6,1-diyl))bis(acetyl))bis(6-(4-fluorobenzyl)-3,3-dimethyl-1,2,3,4-tetrahydro-5H-pyrrolo[3,2-b]pyridin-5-one)], in assay [1], the EC50 is 0.49 to 12.6 nM. Further, the IC50 was 7.94 to 15.8 nM at cIAP1-BIR3; 1000 to 3160 nM at cIAP1-BIR2; 7.94 to 15.8 nM on cIAP2-BIR3; 3160 to 10000 nM at cIAP2-BIR2; 15.8 to 31.6 nM on XIAP-BIR3; 10000 to 51300 nM on XIAP-BIR2 (FRET competition binding). Moreover, the “cIAP1 BIR3 vs BIR2 separation window” value at cIAP1-BIR3 is listed as “+++ (10,000>FS>1,000)”. Further, at cIAP2-BIR3, the “cIAP2 BIR3 vs BIR2 separation window” value is recorded as “+++ (10,000>FS>1,000)”. Further, the “XIAP BIR3 vs BIR2 separation window” value at XIAP-BIR3 is recorded as “++++ (FS>10,000)”.
In the case of `C[C@@H]1CN(CC(=O)N2CC(C)(C)c3[nH]c(=O)c(Cc4ccc(F)cc4)cc32)[C@@H](CN2CCN(C(=O)c3ccc(C(=O)N4CCN(C[C@H]5CN[C@H](C)CN5CC(=O)N5CC(C)(C)c6[nH]c(=O)c(Cc7ccc(F)cc7)cc65)[C@H](C)C4)cc3)C[C@H]2C)CN1` [Example 19, 1,1′-(2,2′-((3R,3′R,6R,6′R)-(((2R,2′R)-terephthaloylbis(2-methylpiperazine-4,1-diyl))bis(methylene))bis(3-methylpiperazine-6,1-diyl))bis(acetyl))bis(6-(4-fluorobenzyl)-3,3-dimethyl-1,2,3,4-tetrahydro-5H-pyrrolo[3,2-b]pyridin-5-one)], the EC50 in assay [1] is 63.1 to 316 nM. Further, the IC50 at cIAP1-BIR3 is 1.38 to 7.94 nM; at cIAP1-BIR2, 22.4 to 1000 nM; at cIAP2-BIR3, 1.38 to 7.94 nM; on cIAP2-BIR2, 22.4 to 1000 nM; on XIAP-BIR3 it was 1.38 to 7.94 nM. Moreover, the “cIAP1 BIR3 vs BIR2 separation window” value at cIAP1-BIR3 was “+++ (10,000>FS>1,000)”. Besides, at cIAP2-BIR3, the “cIAP2 BIR3 vs BIR2 separation window” value was “+++ (10,000>FS>1,000)”. Besides, at XIAP-BIR3, the “XIAP BIR3 vs BIR2 separation window” value is reported as “++++ (FS>10,000)”. Besides, the “XIAP BIR2 (pIC50)” value at XIAP-BIR2 (FRET competition binding) was “+ (4.29<pIC50<=5.00)”.
For `C[C@@H]1CN(CC(=O)N2CC(C)(C)c3[nH]c(=O)c(Cc4ccc(F)cc4)cc32)[C@@H](CN2CCO[C@H](C(=O)Nc3cccc(NC(=O)[C@@H]4CN(C[C@H]5CN[C@H](C)CN5CC(=O)N5CC(C)(C)c6[nH]c(=O)c(Cc7ccc(F)cc7)cc65)CCO4)c3)C2)CN1` [Compound 140, (2S,2′S)-N,N′-(1,3-phenylene)bis(4-(((2R,5R)-1-(2-(6-(4-fluorobenzyl)-3,3-dimethyl-5-oxo-2,3,4,5-tetrahydro-1H-pyrrolo[3,2-b]pyridin-1-yl)-2-oxoethyl)-5-methylpiperazin-2-yl)methyl)morpholine-2-carboxamide)], the EC50 in assay [1] is 63.1 to 316 nM. Further, the IC50 on cIAP1-BIR3 was 7.94 to 15.8 nM; on cIAP1-BIR2, 1000 to 3160 nM; at cIAP2-BIR3, 7.94 to 15.8 nM; on cIAP2-BIR2, 1000 to 3160 nM; on XIAP-BIR3, 15.8 to 31.6 nM; at XIAP-BIR2 (FRET competition), 10000 to 51300 nM. Besides, the “cIAP1 BIR3 vs BIR2 separation window” value on cIAP1-BIR3 is “+++ (10,000>FS>1,000)”. In addition, the “cIAP2 BIR3 vs BIR2 separation window” value at cIAP2-BIR3 is reported as “+++ (10,000>FS>1,000)”. At XIAP-BIR3, the “XIAP BIR3 vs BIR2 separation window” value was “++++ (FS>10,000)”.
Take `C[C@@H]1CN(CC(=O)N2CC(C)(C)c3[nH]c(=O)c(Cc4ccc(F)cc4)cc32)[C@@H](CN2CCC(CN(C)C(=O)Cc3ccc(C(=O)N(C)CC4CCN(C[C@H]5CN[C@H](C)CN5CC(=O)N5CC(C)(C)c6[nH]c(=O)c(Cc7ccc(F)cc7)cc65)CC4)cc3)CC2)CN1` [Example 97, N-((1-(((2R,5R)-1-(2-(6-(4-fluorobenzyl)-3,3-dimethyl-5-oxo-2,3,4,5-tetrahydro-1H-pyrrolo[3,2-b]pyridin-1-yl)-2-oxoethyl)-5-methylpiperazin-2-yl)methyl)piperidin-4-yl)methyl)-4-(2-(((1-(((2R,5R)-1-(2-(6-(4-fluorobenzyl)-3,3-dimethyl-5-oxo-2,3,4,5-tetrahydro-1H-pyrrolo[3,2-b]pyridin-1-yl)-2-oxoethyl)-5-methylpiperazin-2-yl)methyl)piperidin-4-yl)methyl)(methyl)amino)-2-oxoethyl)-N-methylbenzamide]: in assay [1], the EC50 was 63.1 to 316 nM. For the same compound, the IC50 on cIAP1-BIR3 was 1.38 to 7.94 nM; on cIAP1-BIR2 it was 1000 to 3160 nM; at cIAP2-BIR3 it was 1.38 to 7.94 nM; on cIAP2-BIR2 it was 3160 to 10000 nM; on XIAP-BIR3, 7.94 to 15.8 nM; on XIAP-BIR2 (FRET competition binding), 10000 to 51300 nM. In addition, the “cIAP1 BIR3 vs BIR2 separation window” value on cIAP1-BIR3 is listed as “++++ (FS>10,000)”. On cIAP2-BIR3, the “cIAP2 BIR3 vs BIR2 separation window” value was “+++ (10,000>FS>1,000)”. Besides, the “XIAP BIR3 vs BIR2 separation window” value on XIAP-BIR3 is reported as “++++ (FS>10,000)”.
As for `Cc1c(OC[C@@H]2CN(C[C@H]3CN[C@H](C)CN3CC(=O)N3CC(C)(C)c4[nH]c(=O)c(Cc5ccc(F)cc5)cc43)CCO2)cccc1OC[C@@H]1CN(C[C@H]2CN[C@H](C)CN2CC(=O)N2CC(C)(C)c3[nH]c(=O)c(Cc4ccc(F)cc4)cc32)CCO1` [Example 79, 1,1′-(2,2′-((3R,3′R,6R,6′R)-(((2S,2'S)-(((2-methyl-1,3-phenylene)bis(oxy))bis(methylene))bis(morpholine-2,4-diyl))bis(methylene))bis(3-methylpiperazine-6,1-diyl))bis(acetyl))bis(6-(4-fluorobenzyl)-3,3-dimethyl-1,2,3,4-tetrahydro-5H-pyrrolo[3,2-b]pyridin-5-one)], the EC50 in assay [1] is 0.49 to 12.6 nM. In addition, the IC50 on cIAP1-BIR3 is 1.38 to 7.94 nM; at cIAP1-BIR2 it was 1000 to 3160 nM; on cIAP2-BIR3, 1.38 to 7.94 nM; at cIAP2-BIR2 it was 3160 to 10000 nM; on XIAP-BIR3, 7.94 to 15.8 nM; on XIAP-BIR2 (FRET competition binding), 10000 to 51300 nM. Moreover, the “cIAP1 BIR3 vs BIR2 separation window” value at cIAP1-BIR3 is reported as “+++ (10,000>FS>1,000)”. Moreover, the “cIAP2 BIR3 vs BIR2 separation window” value at cIAP2-BIR3 was “+++ (10,000>FS>1,000)”. For the same compound, at XIAP-BIR3, the “XIAP BIR3 vs BIR2 separation window” value is listed as “++++ (FS>10,000)”.
